What was measured:
Type in all cases: ADME, organism-based
Rattus norvegicus [1] = experiment: Mean transit time in Sprague-Dawley rat assessed as L-eflornithine at 750 to 3000 mg/kg, po; set-up: dose 750-3000 mg/kg, route oral; settings: in vivo
Rattus norvegicus [2] = experiment: Intercompartmental clearance in Sprague-Dawley rat assessed as L-eflornithine at 1000 mg/kg, iv administered as 3 mins short-term infusion; set-up: dose 1000 mg/kg, route intravenous; settings: in vivo, 0.05 h
Rattus norvegicus [3] = experiment: Intercompartmental clearance in Sprague-Dawley rat assessed as D-eflornithine at 375 mg/kg, iv administered as single infusion; set-up: dose 375 mg/kg, route intravenous; settings: in vivo
Rattus norvegicus [4] = experiment: Intercompartmental clearance in Sprague-Dawley rat assessed as L-eflornithine at 375 mg/kg, iv administered as single infusion; set-up: dose 375 mg/kg, route intravenous; settings: in vivo
Rattus norvegicus [5] = experiment: Mean transit time in Sprague-Dawley rat assessed as D-eflornithine at 750 to 3000 mg/kg, po; set-up: dose 750-3000 mg/kg, route oral; settings: in vivo
[6] = Oral bioavailability in Sprague-Dawley rat at 750 mg/kg, po; settings: in vivo, pooled result: one value given for 3 cell lines, strains, targets or settings
[7] = Oral bioavailability in Sprague-Dawley rat at 3000 mg/kg, po; settings: in vivo
Rattus norvegicus [8] = experiment: Intercompartmental clearance in Sprague-Dawley rat assessed as D-eflornithine at 1000 mg/kg, iv administered as 3 mins short-term infusion; set-up: dose 1000 mg/kg, route intravenous; settings: in vivo, 0.05 h
[9] = Central volume of distribution in Sprague-Dawley rat at 1000 mg/kg, iv administered as 3 mins short-term infusion; set-up: dose 1000 mg/kg, route intravenous; settings: in vivo
[10] = Central volume of distribution in Sprague-Dawley rat at 375 mg/kg, iv administered as single infusion; set-up: dose 375 mg/kg, route intravenous; settings: in vivo
[11] = Clearance in Sprague-Dawley rat at 375 mg/kg, iv administered as single infusion; set-up: dose 375 mg/kg, route intravenous; settings: in vivo
[12] = Clearance in Sprague-Dawley rat at 1000 mg/kg, iv administered as 3 mins short-term infusion; set-up: dose 1000 mg/kg, route intravenous; settings: in vivo

| MTT (Rattus norvegicus [1]) | CL (Rattus norvegicus [2]) | CL (Rattus norvegicus [3]) | CL (Rattus norvegicus [4]) | MTT (Rattus norvegicus [5]) | bioavailability [6] | bioavailability [7] | CL (Rattus norvegicus [8]) | Vd [9] | Vd [10] | clearance [11] | clearance [12] | SMILES |
| --- | --- | --- | --- | --- | --- | --- | --- | --- | --- | --- | --- | --- |
| 88 min | 1.2 mL/min/kg | 1.2 mL/min/kg | 1.2 mL/min/kg | 88 min | 62.3% | 82.7% | 1.2 mL/min/kg |  |  |  |  | NCCCC(N)(C(=O)O)C(F)F (racemic) [EFLORNITHINE] |
|  |  |  |  |  | 41% | 47% |  | 0.404 L/kg | 0.404 L/kg | 14.5 mL/min/kg | 14.5 mL/min/kg | NCCC[C@](N)(C(=O)O)C(F)F [EFLORNITHINE, (S)-] |
|  |  |  |  |  |  |  |  | 0.401 L/kg |  | 12.6 mL/min/kg |  | NCCC[C@@](N)(C(=O)O)C(F)F [D-EFLORNITHINE] |
